In patent US5981219A, “DNA molecules which code for a plastid 2-oxoglutarate/malate translocator” (Hoechst Schering Agrevo GmbH, priority 1919, dated 1999):

Key:
[1] = biological target: T1, 2-oxoglutarate/malate translocator, envelope membrane of spinach chloroplasts (Spinacia oleracea, UniProt Q41364); test: Reconstituted malate transport activity, envelope membrane proteins of spinach chloroplasts in liposomes; format: biochemical; conditions: for transport activity, percentage of activity measured with malate-preloaded liposomes: envelope membrane of spinach chloroplasts, liposomes preloaded with the indicated dicarboxylate, standard deviation in brackets
T1 construct: it is cleaved during the import process by a specific protease; the mature protein (m) is formed; from tissue; host or cells: spinach chloroplast envelope membranes
T1 sequence (Q41364 94-569): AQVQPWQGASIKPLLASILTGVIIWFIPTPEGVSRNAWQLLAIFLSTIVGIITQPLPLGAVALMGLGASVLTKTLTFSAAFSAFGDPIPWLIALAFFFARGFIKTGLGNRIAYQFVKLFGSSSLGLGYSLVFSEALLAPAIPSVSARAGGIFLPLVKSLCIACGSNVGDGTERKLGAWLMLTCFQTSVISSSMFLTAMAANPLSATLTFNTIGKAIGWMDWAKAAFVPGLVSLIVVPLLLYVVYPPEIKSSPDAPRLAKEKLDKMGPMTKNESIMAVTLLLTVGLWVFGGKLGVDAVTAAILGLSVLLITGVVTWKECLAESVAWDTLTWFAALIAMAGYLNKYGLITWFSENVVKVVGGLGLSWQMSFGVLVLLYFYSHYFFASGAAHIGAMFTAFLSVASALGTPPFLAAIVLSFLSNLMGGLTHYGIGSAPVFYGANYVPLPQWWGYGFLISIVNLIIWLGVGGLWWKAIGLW
Description: (§1) Yeast cells transformed with pEVP11-211 plasmid (see FIG. 2A, SP-DC3 cells) were grown in minimum essential medium up to an optical density of 1.0 at 600 nm and harvested by centrifugation at 3,000×g for 5 minutes. The cells were disrupted by vigorously shaking the mixture with 1/2 vol. (based on the cells) glass beads and glass beads and cell debris were separated by centrifugation (600 g for 1 minute). The supernatant was adjusted to a concentration of 0.5% (weight/volume) Triton X-100, an equal volume of liposomes was added to the mixture and the resulting proteoliposomes were immediately frozen in liquid nitrogen. The liposomes were previously prepared by sonification of soy bean phospholipid (20 mg/ml for 10 minutes at 4° C. in the presence of 200 mM tricine NaOH (pH 7.6), 40 mM malate and 60 mM potassium gluconate. After thawing of the proteoliposomes and sonification of the suspension with 10 pulses a 1 s the proteoliposomes were separated from the surrounding medium by size exclusion chromatography on Sephadex G-25 which had been equilibrated with 10 mM tricine NaOH (pH 7.6), 100 mM sodium gluconate and 50 mM potassium gluconate. The eluted proteoliposomes were used for measuring malate transport activity. The measurement was carried out according to the "inhibitor stop" method described by Menzlaff and Flugge (1993, Biochim. Biophys. Acta 1147:13-18).
Whole yeast protein, envelope membrane proteins and the purified
2oxyoglutarate/malate translocator were reconstituted in liposomes which
were preloaded with the indicated dicarboxylates. The transport activitie
were measured as described by Menzlaff and Flugge (Biochim. Biophys. Acta
1993, 1147: 13-18) and are indicated in the percentage of activity
measured with malatepreloaded liposomes. The standard deviations are
indicated in brackets. The 100% transport activities (nMol/mg # protein
per minute) were 0.8 (recombinant protein), 21.4 (envelope membranes) and
263 (purified translocator protein).

[2] = biological target: T2, recombinant 2-oxoglutarate/malate translocator (transformed SP-DC3 cells) (Spinacia oleracea, UniProt Q41364); test: Reconstituted malate transport activity (inhibitor stop method), recombinant protein from transformed SP-DC3 yeast cells in liposomes; format: biochemical, spinach (expressed in Schizosaccharomyces pombe); conditions: for transport activity, percentage of activity measured with malate-preloaded liposomes: recombinant protein (transformed SP-DC3 cells), liposomes preloaded with the indicated dicarboxylate, standard deviation in brackets
T2 construct: made in house; host or cells: Schizosaccharomyces pombe (SP-DC3 cells, plasmid pEVP11-211)
T2 sequence (Q41364 94-569): T1 sequence (Q41364 94-569)
Description: as §1
The malate transport activity in the pEVP11-211 transformants was compared with the malate transport activity of transformants that were merely transformed with the vector pEVP11 without the 211 insert.

[3] = test system: purified 2-oxoglutarate/malate translocator protein; conditions: cited from earlier work; for transport activity, percentage of activity measured with malate-preloaded liposomes: liposomes preloaded with the indicated dicarboxylate
[4] = test system: protein import into intact spinach chloroplasts; test: Import of in vitro translated translocator precursor protein into intact spinach chloroplasts (SDS-PAGE, fluorography); conditions: light conditions, 10 μM CCCP (lane 8, FIG. 3)
Description: FIG. 3: Targeting of the 2-oxoglutarate/malate translocator precursor protein to the chloroplasts and energy-dependent insertion of the mature protein in the inner envelope membrane
SDS polyacrylamide gel electrophoresis was carried out as described in Example 6:
Lane 8: plus decoupling agent (10 μM CCCP) Lane 9: plus 2 mM ATP; protease-pretreated chloro-plasts (30 μg/ml)
The in vitro transcription of plasmid pBSC-211 which was linearized with SmaI was carried out using T3 RNA polymerase according to the instructions of the manufacturer (Pharmacia). Subsequent in vitro translation was carried out in the reticulocyte lysate (Boehringer-Mannheim). The post-ribosomal supernatant was used for protein transports in intact spinach chloroplasts. The experiment was carried out in the dark as well as in the light; the preparation contained import buffer (Flugge et al., 1989, EMBO J. 8:39-46), intact spinach chloroplasts (corresponding to 200 […]) and various additives indicated in the legend to FIG. 3 (entire volume: […]). After 15 minutes at 25° C. the chloroplasts were washed and the envelope membranes […] (Flugge et al., 1989, EMBO J. 8:39-46) […]. They were analyzed in a SDS polyacrylamide gel electrophoresis (Laemmli, 1970, Nature 227:680-685) and subsequent fluorography (Bonner and Laskey, 1974, Eur. J. Biochem. 46:84-88) (FIG. 3). […]

Row | Compound | transport activity, percentage of activity measured with malate-preloaded liposomes [1] | transport activity, percentage of activity measured with malate-preloaded liposomes [2] | transport activity, percentage of activity measured with malate-preloaded liposomes [3] [%] | 100% transport activity ([3]; malate-preloaded liposomes) | 100% transport activity ([1]; malate-preloaded liposomes, envelope membranes) | 100% transport activity ([2]; malate-preloaded liposomes, recombinant protein) | protein import into chloroplasts [4]
1 | O=C(O)CCC(=O)C(=O)O [2-Oxoglutarate] | 46 (±2) % | 44 (±14) % |  |  |  |  | 
2 | N[C@@H](CCC(=O)O)C(=O)O [Glutamate] | 6 (±1) % | 3 (±1) % |  |  |  |  | 
3 | O=C(O)CC(O)C(=O)O (stereo not drawn) [Malate] | 100% | 100% | 100 | 263 nMol/mg protein per minute | 21.4 nMol/mg protein per minute | 0.8 nMol/mg protein per minute | 
4 | N[C@@H](CC(=O)O)C(=O)O [Aspartate] | 12 (±1) % | 13 (±4) % |  |  |  |  | 
5 | O=C(O)CCCC(=O)O [Glutarate] | 52 (±1) % | 63 (±14) % |  |  |  |  | 
6 | O=C(O)CCC(=O)O [Succinate] | 74 (±2) % | 83 (±12) % | 63 |  |  |  | 
7 | N#CC(C#N)=NNc1cccc(Cl)c1 [CCCP] |  |  |  |  |  |  | the protein import is blocked
8 | O=C(O)/C=C/C(=O)O [Fumarate] | 72 (±2) % | 119 (±24) % | 65 |  |  |  | 
